Reference: ChEMBL document CHEMBL3507680, “University of Dundee, Gates Library screen for HepG2 cell viability”

assay: Human HepG2 cell viability assay in 384 well format; format: toxicity, cell-based; parameters: dose 125 nL, time 70.5 hour; cytotoxicity at 70.5 h: concentration not given beside the values; conditions: HepG2 cells, read-out: Inhibition

Point of comparison: `CCc1nnc2n1CCN(C(=O)c1ccc(-c3ccco3)nc1C)C2`, cytotoxicity at 70.5 h 10%. Against it:
- CSCCCN1CCCC1c1noc(C)n1 (centres undefined) — lower, 1.11%
- Cc1cnn(CCNCc2csc(-c3ccc4c(c3)OCO4)n2)c1 — higher, 10.2%
- CC(C)(C)n1cc(C(=O)N2CCN(Cc3ccsc3)CC2)cn1 — lower, -0.132%
- CC(C)c1ccc(OCCC(=O)N2CCC(CC(N)=O)CC2)cc1 — lower, -3.31%
- CC1CN(C(=O)NCCCn2cncn2)CCO1 (centres undefined) — lower, -1.85%
- CCc1nnc2n1CCN(CC(=O)Nc1cc(C(C)(C)C)nn1C)C2 — lower, 0.0813%
- O=C(Nc1cnn(CCN2CCOCC2)c1)c1cc(F)ccc1F — lower, -2.44%
- Cc1nn(CC(=O)N2CCC(Nc3cccnn3)CC2)c(C)c1Cl — higher, 28.5%
- CS(=O)(=O)N1CCCCCC1C1CCN(c2ncccn2)CC1 (centres undefined) — higher, 15.3%
- Cc1cnn(CCNCc2csc(-c3cccs3)n2)c1 — lower, -4.79%
- Cc1nn(C)c(C)c1CC(=O)N1CCC(Nc2cccnn2)CC1 — higher, 35.9%
- CCCSCC(=O)NS(=O)(=O)c1ccc2c(c1)OCCO2 — lower, 2.12%
- O=C(CSc1ccccc1Cl)NS(=O)(=O)c1ccc2c(c1)OCCO2 — lower, -4.84%
- CCn1c(CN2CCC(O)(C(=O)OC)CC2)nc2c(F)cccc21 — higher, 31.2%
- OC(CN1CCCCCCC1)c1ccc(F)cc1 (centres undefined) — lower, 3.53%
- Cc1cc2n(n1)CC(CNCc1ccnc(-n3ccnc3C)c1)CN2 (centres undefined) — lower, 0.264%
- Cc1nc(C2CCCN2C(=O)c2cnns2)no1 (centres undefined) — lower, -8.38%
- CCn1ccnc1CN1CCN(CCOc2cccc(C#N)c2)CC1 — lower, -5.28%
- Cc1cnn(CCNCc2nc(-c3ccccc3Cl)no2)c1 — higher, 31.1%
- Cc1cc(CN2CCN(C(=O)Nc3cccnc3)CC2)on1 — lower, -7.67%
- CC(NC(=O)N(C)Cc1ccsc1)c1ccc2c(c1)CCC(=O)N2 (centres undefined) — lower, -3.94%
- Cc1cc(CN2CCN(C(=O)NC(C)c3cccnc3)CC2)on1 (centres undefined) — lower, -11.7%
- CC(NC(=O)N1CCCN(Cc2cccs2)CC1)c1cccnc1 (centres undefined) — lower, -16.5%
- Cc1nc(CNCc2c(C)nn(C)c2N2CCOCC2)cs1 — lower, -15.5%
- CC(NC(=O)N(C)Cc1ccsc1)c1ccc2c(c1)NC(=O)CO2 (centres undefined) — lower, -9.52%
- Cc1noc(C)c1CNC(=O)N1CCN(Cc2cscn2)CC1 — lower, -5.24%
- CCOc1ccccc1C(CC(=O)Nc1ccccc1F)NC(C)=O (centres undefined) — lower, -6.84%
- Cc1cc(CNCc2c(C)nn(C)c2N2CCOCC2)no1 — lower, -4.07%
- CNS(=O)(=O)c1ccc(C(=O)N2CCCC(n3cccn3)C2)cc1 (centres undefined) — lower, -8.29%
- CCOC(=O)CN1CCC(C(=O)c2cc(F)ccc2F)CC1 — higher, 34.9%
- Cc1nc(C)n(CC2CCCN2Cc2nc(-c3cccs3)no2)n1 (centres undefined) — lower, -12.2%
- Cc1cnn(CCNCc2nc(Cc3ccccc3)no2)c1 — lower, -5.53%
- Cc1cc(C)n(CC2CCCN2C(=O)CCCNc2ncccn2)n1 (centres undefined) — lower, -0.613%
- COc1cc(CNC(=O)NCc2c(C)cc(C)[nH]c2=O)ccc1C — lower, -8.93%
- Cc1nc(C2CCCN(C(=O)Cn3ccccc3=O)C2)no1 (centres undefined) — lower, -9.54%
- Cc1cc(C)n(CC2CCCN2C(=O)CCc2cscn2)n1 (centres undefined) — lower, -8.27%
- Cc1nc(C)n(CC2CCCN2Cc2nc(C3CC3)no2)n1 (centres undefined) — lower, -5.43%
- COCCN1CCN(Cc2noc(C3CC3)n2)CC1C (centres undefined) — higher, 12.5%
- Cc1cccc(OCCC(=O)N2CCN(S(=O)(=O)N(C)C)CC2)c1C — higher, 20.1%
- O=C(NCCc1ccccn1)C1=NN(c2ccccc2)C(=O)CN1 — lower, -6.71%
- CC(C)c1noc(CCCC(=O)N2CCN(Cc3ccncc3)CC2)n1 — lower, -17.6%
- Cn1cc(NS(=O)(=O)c2ccc(OC(F)(F)F)cc2)ccc1=O — higher, 18%
- Cn1ncc2c(=O)[nH]c(CN3CCCC3c3cccs3)nc21 (centres undefined) — lower, -10.3%
- OC(COCc1ccc(Cl)cc1)CN1CCC(c2ccn[nH]2)CC1 (centres undefined) — lower, -1.37%
- COCCNc1ccc(CNC(=O)Nc2cn[nH]c2)cc1 — lower, -16.6%
- OC(COc1ccccc1)CN1CCC(c2ccn[nH]2)CC1 (centres undefined) — lower, -13.1%
- CCn1cnnc1C1CCN(C(=O)c2ccc(Cl)s2)CC1 — lower, -15%
- CCn1cnnc1C1CCN(C(=O)c2cc3c(s2)CCC3)CC1 — lower, -12.3%
- Cc1cccc(OCCC(=O)N2CCCN(C(N)=O)CC2)c1C — higher, 15.3%
- Cc1noc(C)c1CN1CCN(Cc2nccn2C)C(C)C1 (centres undefined) — lower, -11.9%
- Cc1cccc(OCCC(=O)N2CCCN(CC(N)=O)CC2)c1C — lower, -12%
- Cc1cnn(CCNCC(O)COc2ccc(C#N)cc2)c1 (centres undefined) — lower, -5.86%
- CN(C)c1cc2c(nn1)CCN(C(=O)C1CCc3ccccc31)C2 (centres undefined) — higher, 13.5%
- CN(C)c1cc2c(nn1)CCN(C(=O)C1Cc3ccccc3S1)C2 (centres undefined) — lower, -8.43%
- COc1ccc(CNC(=O)N(Cc2ccc(F)cc2F)C2CC2)cn1 — higher, 18.5%
- COc1ccc2c(c1)CN(Cc1nc3ccsc3c(=O)[nH]1)CC2 — lower, 5.83%
- Cc1nn(C)c(N(C)C)c1CNC1CCc2c(F)cccc21 (centres undefined) — lower, 7.05%
- Cc1cnc(CN(C)C2CCN(CC(=O)Nc3nncs3)C2)o1 (centres undefined) — higher, 17.3%
